Test results reported in patent US20240116910A1, “Heterocycles as WIP1 Inhibitors” (PMV Pharmaceuticals, Inc., priority 2022, published 2024).

Molecular target: recombinant His-tag Wip1(2-420) protein (amino acids #2-420) (Homo sapiens (Human), UniProt O15297)
Assay: Wip1(2-420) phosphatase enzyme FDP assay
Format: biochemical
Details: fluorescein diphosphate (FDP) substrate, RT 2 hours, fluorescence Ex485/Em535; read-out: WIP1 (Truncated 2-420) FDP Assay: IC50

Sequence of recombinant His-tag Wip1(2-420) protein (amino acids #2-420) (O15297 2-420): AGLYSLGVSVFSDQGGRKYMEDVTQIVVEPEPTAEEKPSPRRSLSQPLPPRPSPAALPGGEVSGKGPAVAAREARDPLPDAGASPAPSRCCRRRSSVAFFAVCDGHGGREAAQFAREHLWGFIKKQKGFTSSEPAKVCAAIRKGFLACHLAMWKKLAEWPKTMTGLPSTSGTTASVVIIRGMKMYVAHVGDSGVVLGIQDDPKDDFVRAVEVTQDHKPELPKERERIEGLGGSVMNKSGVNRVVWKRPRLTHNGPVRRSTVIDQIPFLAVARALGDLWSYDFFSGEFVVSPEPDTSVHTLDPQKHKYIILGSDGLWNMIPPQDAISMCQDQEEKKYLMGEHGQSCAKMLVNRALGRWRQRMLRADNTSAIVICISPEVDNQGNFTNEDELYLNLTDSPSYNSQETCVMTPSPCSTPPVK

Compound | IC50 [nM]
Cc1ncc(Cl)cc1N[C@@H](C)c1ccc(C(=O)N[C@@H](CC2CCCC2)C(=O)N[C@@H]2CC[C@H](F)C2)s1 [Compound 258, (2S)-2-({5-[(1S)-1-[(5-chloro-2-methylpyridin-3-yl)amino]ethyl]thiophen-2-yl}formamido)-3-cyclopentyl-N-[(1R,3S)-3-fluorocyclopentyl]propanamide] | 7
COCCn1cc(NC(=O)[C@H](CC2CCCC2)NC(=O)c2ccc([C@H](C)Nc3cc(Cl)cnc3C)s2)cn1 [Compound 220, (2S)-2-({5-[(1S)-1-[(5-chloro-2-methylpyridin-3-yl)amino]ethyl]thiophen-2-yl}formamido)-3-cyclopentyl-N-[1-(2-methoxyethyl)-1H-pyrazol-4-yl]propanamide] | 6
C[C@@H](Nc1cc(Cl)cnc1C(F)(F)F)c1ccc(C(=O)N[C@@H](CC2CCCC2)C(=O)NC2CC2)s1 [Compound 190, (2S)-2-({5-[(1R)-1-{[5-chloro-2-(trifluoromethyl)pyridin-3-yl]amino}ethyl]thiophen-2-yl}formamido)-3-cyclopentyl-N-cyclopropylpropanamide] | 224
COC[C@@H](Nc1cc(Cl)cnc1C)c1ccc(C(=O)N[C@@H](CC2CCCC2)C(=O)NC2CC2)s1 [Compound 158, (2S)-2-({5-[(1R)-1-[(5-chloro-2-methylpyridin-3-yl)amino]-2-methoxyethyl]thiophen-2-yl}formamido)-3-cyclopentyl-N-cyclopropylpropanamide] | 1000
Cc1ncc(Cl)cc1N[C@@H](C)c1ccc(C(=O)N[C@@H](CC2CCCC2)C(=O)NC2CCc3ncccc3C2)s1 (stereo partly drawn) [Compound 169, (2S)-2-({5-[(1S)-1-[(5-chloro-2-methylpyridin-3-yl)amino]ethyl]thiophen-2-yl}formamido)-3-cyclopentyl-N-(5,6,7,8-tetrahydroquinolin-6-yl)propanamide] | 9
Cc1ncc(Cl)cc1N[C@@H](C)c1ccc(C(=O)N[C@@H](CC2CCCC2)C(=O)Nc2ccnc(O)c2)s1 [Compound 139, (2S)-2-({5-[(1S)-1-[(5-chloro-2-methylpyridin-3-yl)amino]ethyl]thiophen-2-yl}formamido)-3-cyclopentyl-N-(2-hydroxypyridin-4-yl)propanamide] | 5
COC(=O)c1ncc(Cl)cc1N[C@H](C)c1ccc(C(=O)N[C@@H](CC2CCCC2)C(=O)NC2CC2)s1 [Compound 103, methyl 5-chloro-3-{[(1R)-1-(5-{[(1S)-2-cyclopentyl-1-(cyclopropylcarbamoyl)ethyl]carbamoyl}thiophen-2-yl)ethyl]amino}pyridine-2-carboxylate] | 520
Cc1ncc(Cl)cc1N[C@@H](C)c1ccc(C(=O)N[C@@H](CC2CCCCC2)C(=O)N[C@H]2C[C@H](F)C2)s1 [Compound 108, (2S)-2-({5-[(1S)-1-[(5-chloro-2-methylpyridin-3-yl)amino]ethyl]thiophen-2-yl}formamido)-3-cyclohexyl-N-[(1r,3r)-3-fluorocyclobutyl]propanamide] | 5
Cc1cc(NC(=O)[C@@H](CCC(C)(C)C)NC(=O)c2ccc([C@H](C)Nc3cc(Cl)cnc3C)s2)ccn1 [Compound 145, (2R)-2-({5-[(1S)-1-[(5-chloro-2-methylpyridin-3-yl)amino]ethyl]thiophen-2-yl}formamido)-5,5-dimethyl-N-(2-methylpyridin-4-yl)hexanamide] | 1420
C[C@H](Nc1cc(Cl)cnc1C(=O)O)c1ccc(C(=O)N[C@@H](CC2CCCC2)C(=O)NC2CC2)s1 [Compound 269, 5-chloro-3-{[(1S)-1-(5-{[(1S)-2-cyclopentyl-1-(cyclopropylcarbamoyl)ethyl]carbamoyl}thiophen-2-yl)ethyl]amino}pyridine-2-carboxylic acid] | 14
Cc1cc(NC(=O)[C@H](CC2CCCC2)NC(=O)c2ccc(C(C)(C)Nc3cc(Cl)cnc3C)s2)ccn1 [Compound 270, (2S)-2-[(5-{2-[(5-chloro-2-methylpyridin-3-yl)amino]propan-2-yl}thiophen-2-yl)formamido]-3-cyclopentyl-N-(2-methylpyridin-4-yl)propanamide] | 6
O=C(N[C@@H](CC1CCCC1)C(=O)NC1CC1)c1ccc([C@@H]2CCc3c(Cl)cccc3N2)s1 [Compound 250, (2S)-2-({5-[(2S)-5-chloro-1,2,3,4-tetrahydroquinolin-2-yl]thiophen-2-yl}formamido)-3-cyclopentyl-N-cyclopropylpropanamide] | 301
Cc1ncc(Cl)cc1N[C@@H](C)c1ccc(C(=O)N[C@@H](CC2CCCCC2)C(=O)NC23CC(C2)C3)s1 [Compound 109, (2S)-N-{bicyclo[1.1.1]pentan-1-yl}-2-({5-[(1S)-1-[(5-chloro-2-methylpyridin-3-yl)amino]ethyl]thiophen-2-yl}formamido)-3-cyclohexylpropanamide] | 8
Cc1ncc(Cl)cc1N[C@H](C)c1ccc(C(=O)N[C@@H](CC2CCCC2)C(=O)NC2CC2)s1 [Compound 9, 5-[(1R)-1-[(5-chloro-2-methyl-3-pyridyl)amino]ethyl]-N-[(1S)-1-(cyclopentylmethyl)-2-(cyclopropylamino)-2-oxo-ethyl]thiophene-2-carboxamide] | 411
Cc1ncc(Cl)cc1N[C@@H](C)c1ccc(C(=O)N[C@@H](CC2CCCC2)C(=O)Nc2cc(N)ccn2)s1 [Compound 150, (2S)-N-(4-aminopyridin-2-yl)-2-({5-[(1S)-1-[(5-chloro-2-methylpyridin-3-yl)amino]ethyl]thiophen-2-yl}formamido)-3-cyclopentylpropanamide] | 8
Cc1ncc(Cl)cc1N[C@@H](C)c1ccc(C(=O)N[C@@H](CC2CCCC2)C(=O)Nc2ccc(C(N)=O)nc2)s1 [Compound 153, 5-[(2S)-2-({5-[(1S)-1-[(5-chloro-2-methylpyridin-3-yl)amino]ethyl]thiophen-2-yl}formamido)-3-cyclopentylpropanamido]pyridine-2-carboxamide] | 5
CC(Nc1cc(Cl)cnc1C(N)=O)c1ccc(C(=O)N[C@@H](CC2CCCC2)C(=O)Nc2cnn(C)c2)s1 (stereo partly drawn) [Compound 173, 5-chloro-3-{[1-(5-{[(1S)-2-cyclopentyl-1-[(1-methyl-1H-pyrazol-4-yl)carbamoyl]ethyl]carbamoyl}thiophen-2-yl)ethyl]amino}pyridine-2-carboxamide] | 8
Cc1ncc(Cl)cc1N[C@@H](C)c1ccc(C(=O)N[C@@H](CC2CCCC2)C(=O)Nc2cnn(CCN(C)C)c2)s1 [Compound 151, (2S)-2-({5-[(1S)-1-[(5-chloro-2-methylpyridin-3-yl)amino]ethyl]thiophen-2-yl}formamido)-3-cyclopentyl-N-{1-[2-(dimethylamino)ethyl]-1H-pyrazol-4-yl}propanamide] | 6
Cc1ncc(Cl)cc1N[C@@H](C)c1ccc(C(=O)NC2Cc3ccccc3NC2=O)s1 (stereo partly drawn) [Compound 253, 5-[(1S)-1-[(5-chloro-2-methylpyridin-3-yl)amino]ethyl]-N-(2-oxo-1,2,3,4-tetrahydroquinolin-3-yl)thiophene-2-carboxamide] | > 10000
Cc1ncc(Cl)cc1N[C@@H](C)c1ccc(C(=O)N[C@@H](CC2CCCC2)C(=O)Nc2ccnc(Cl)c2)s1 [Compound 143, (2S)-2-({5-[(1S)-1-[(5-chloro-2-methylpyridin-3-yl)amino]ethyl]thiophen-2-yl}formamido)-N-(2-chloropyridin-4-yl)-3-cyclopentylpropanamide] | 5
